Tests used:
Solubility description = format: physicochemical; details: methanol/DMSO; water
MFE-2 [1] = target: T1, MFE-2 (Mus musculus, UniProt P51660); test: CKBA-biotin pull-down and Western blot for direct binding to MFE-2; details: microglial cell line (BV2), CKBA-biotin 5µM, 6 hours
T1 construct: endogenous in cells; host or cells: BV2 mouse microglial cell line
T1 sequence (P51660 1-735): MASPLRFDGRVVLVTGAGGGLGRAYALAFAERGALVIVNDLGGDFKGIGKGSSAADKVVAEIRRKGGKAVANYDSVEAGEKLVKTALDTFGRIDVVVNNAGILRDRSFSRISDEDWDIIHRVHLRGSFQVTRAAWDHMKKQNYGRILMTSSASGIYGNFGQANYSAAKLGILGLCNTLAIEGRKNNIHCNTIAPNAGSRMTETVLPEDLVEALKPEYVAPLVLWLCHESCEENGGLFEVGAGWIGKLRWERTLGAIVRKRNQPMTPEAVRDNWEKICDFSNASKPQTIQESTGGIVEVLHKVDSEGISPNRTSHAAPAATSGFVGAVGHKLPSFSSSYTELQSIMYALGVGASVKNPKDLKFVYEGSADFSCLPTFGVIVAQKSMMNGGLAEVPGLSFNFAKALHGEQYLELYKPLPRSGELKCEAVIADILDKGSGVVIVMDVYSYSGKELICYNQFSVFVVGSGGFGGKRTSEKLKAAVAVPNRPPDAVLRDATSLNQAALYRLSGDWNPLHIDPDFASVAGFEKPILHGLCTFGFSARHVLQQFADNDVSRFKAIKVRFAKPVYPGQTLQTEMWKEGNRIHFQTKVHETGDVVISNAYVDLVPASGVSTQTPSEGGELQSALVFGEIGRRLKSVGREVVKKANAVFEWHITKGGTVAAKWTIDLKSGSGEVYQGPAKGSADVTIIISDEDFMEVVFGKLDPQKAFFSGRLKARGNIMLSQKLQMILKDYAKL
Method: CKBA pull-down assay was performed to detect the direct interaction between CKBA and MFE-2. Specifically, CKBA was labeled with Biotin. CKBA-biotin was added to the culture medium at a final concentration of 5µM for 6 hours. Cells were then washed, lysed, and incubated with Streptavidin magnetic beads under rotation at 4°C for 3 hours. After washing the beads 4 times, loading buffer was added, and the samples were boiled at 96°C for 5 minutes. Western blot (WB) was used to detect MFE-2 protein levels to assess the direct interaction between the small molecule compound and MFE-2.
(§1) The Western blot procedure comprised: fresh cells or tissue samples were immersed in lysis buffer and placed on ice for 10-15 minutes. After observing that the cells/tissues were fully lysed into a homogeneous turbid liquid, the samples were placed on ice for an additional 10 minutes. Centrifugation was performed at 12000 rpm for 10 minutes, and the supernatant was collected. Total protein concentration was determined using the BCA method. Subsequently, steps including loading, electrophoresis, membrane transfer, blocking, and incubation with primary and secondary antibodies were carried out. After developing with ECL chemiluminescent substrate, ImageJ was used to analyze protein content.

MFE-2 [2] = target: T1, MFE-2; test: MFE-2 protein expression in BV2 cells with and without LPS stimulation (Western blot); format: cell-based
Method: Cell treatment: For cell treatment, CKBA was dissolved in DMSO to prepare a stock solution at a concentration of 5mM (1000×), stored at -20°C. For use, the stock solution was added to the cell culture medium at a dilution of 1:1000 and mixed well. The final working concentration was 5µM. Cells were treated for 24-48h and then collected for subsequent experiments.
as §1
Further exploration was conducted to investigate the mode of action of CKBA on the MFE-2 protein.

LPS-activated BV2 cells = test: CCK-8 assay of CKBA-treated LPS-activated BV2 cells; format: cell-based, mouse; details: 0.1-20 µM CKBA, 24 hours
Method: The mouse microglial cell line BV2 was seeded into 96-well flat-bottom plates and cultured overnight to allow full cell adherence. BV2 cells were activated by stimulation with LPS. LPS (Sigma) stock solution (5 mg/mL) was added to the BV2 cell culture supernatant and mixed well. After 12 hours of activation, cell morphology was observed. […]
Subsequently, a CCK8 assay (Dojindo, Japan) was performed to measure cell viability. The cell culture medium was removed from the 96-well plate, and 100 µL of diluted CCK8 reaction solution was added to each well. The plate was protected from light. Incubation conditions: 37°C incubator for about 1-2 hours. After 1 hour of incubation, the plate was removed, and the colorimetric (orange) signal was detected using a multifunctional microplate reader (Tecan Infinite 200 pro, Austria). Depending on the signal intensity, the plate could be further incubated for 1.5/2 hours, and the signal was measured at multiple time points. The colorimetric intensity values were recorded, and subsequent statistical analysis and graphing were performed using SPSS.
In vitro cell experiments were performed to analyze the effect of CKBA on the inflammatory activation of microglia.

inflammatory microglia = test: Seahorse energy metabolism (OCR) assay of CKBA-treated, LPS-stimulated BV2 cells; format: cell-based, mouse; details: Figure 4B
Method: The specific methods for CKBA treatment and LPS activation of the BV2 cell line were as described above.
The main steps of the Seahorse assay were as follows: Seahorse XF Cell Mitochondrial Stress Analysis: Single cells from brain tissue were obtained using the aforementioned experimental methods. Microglia in brain tissue were collected by flow cytometry sorting. Primary microglia were seeded into Seahorse XF cell culture plates 4-7 days in advance. After the cells were fully adherent, the probe plate was hydrated with double-distilled water and placed in a CO2-free 37°C incubator overnight. The next day, the calibration solution was replaced to further equilibrate and hydrate the probes. On the day of the experiment, the assay solution was prepared, and the corresponding substrates (glucose, pyruvate, glutamine, etc.) from the kit were added. The pH was adjusted to 7.4. […] OCR/ECAR values were recorded at different time points after drug addition. After recording, the cell plate was removed, and the number of microglia per well was counted under an inverted microscope. After normalizing OCR/ECAR to the cell number, intracellular mitochondrial stress levels were quantitatively analyzed.
Seahorse energy metabolism analysis was performed. By measuring the changes in oxygen consumption reagents and dissolved oxygen content in the cell culture medium, the OCR of the cells was calculated.

AD mice = test: Behavioral tests (Morris water maze, open field, Y-maze) in AD mice after oral gavage treatment; format: in vivo; details: compared with vehicle control group
Method: For evaluation of therapeutic efficacy in animal models, a 15mg/mL CKBA suspension (solvent: 0.5% sodium carboxymethylcellulose) was administered by oral gavage at a volume of 200µL (equivalent to a dose of 100mg/kg). […] Therapeutic efficacy was evaluated after the treatment period.
• (1) 5xFAD transgenic mice: These mice overexpress mutant human APP (695) carrying the Swedish (K670N, M671L), Florida (I716V) and London (V717I) familial Alzheimer's disease (FAD) mutations, as well as human PS1 carrying two FAD mutations (M146L and L286V). Expressions of both transgenes are driven by the mouse neuron-specific regulatory element Thy1 promoter to achieve overexpression in the brain. […] 5XFAD mice produce almost exclusively Aβ-42 and rapidly accumulate it in the brain. • (2) Preparation of MS mouse (EAE) model and evaluation of CKBA intervention efficacy
Evaluation of the therapeutic effect of CKBA on AD: 8-10 month old 5xFAD mice, 5xFAD mice treated with the small molecule drug CKBA and control mice were subjected to behavioral tests including the Morris water maze, open field test and rotarod test to evaluate higher central nervous system functions. During the behavioral tests, the animal movement trajectory tracking system (EthoVision XT 16.0) was used for full-recording and offline analysis.
Morris water maze: Mice underwent a 5-day adaptive training period, wherein abnormal individuals were excluded. On the final day, after removing the platform, a probe trial was performed. Quantitative data were recorded, including the escape latency after entering the water in each quadrant during the learning phase, the number of platform crossings, and the latency to reach the platform area.
Open field test: The spontaneous activity path of mice in a 50cm*50cm*40 cm novel open field within 5 minutes was recorded. The distance traveled and time spent in the center area were analyzed to assess anxiety-related behavior.
AD mice were treated with CKBA by oral gavage (Figure 5A) for in vivo intervention studies, with continuous intervention for 3 months. […]

[3] = mouse, po, 100 mg/kg
Method: Based on the above optimized method, the absolute content of CKBA in brain tissue was further detected. For absolute content detection of CKBA in brain tissue, normal mice were administered CKBA by oral gavage. One hour after administration, the mice were perfused, and fresh brain tissue and serum were collected for mass spectrometry analysis.

Structure (SMILES): C[C@H]1[C@H](C)CC[C@]2(C)CC[C@]3(C)C(=CC(=O)[C@@H]4[C@@]5(C)CC[C@@H](OC(=O)C6CCCCC6)[C@](C)(C(=O)O)[C@@H]5CC[C@]43C)[C@H]12 [CKBA, 3-o-α-cyclohexanoyl-11-keto-β-boswellic acid]
- solubility (Solubility description): lipophilic, soluble in methanol/DMSO, insoluble in water
- binding to MFE-2 protein (pull-down) (MFE-2 [1]): could bind to the MFE-2 protein
- expression and content of MFE-2 after LPS stimulation (MFE-2 [2]; LPS-stimulated BV2 cells): effectively maintained the expression and content of MFE-2
- baseline expression level of MFE-2 (MFE-2 [2]; normal BV2 cells, no LPS): did not affect the baseline expression level of MFE-2
- expansion of inflammatory microglia (LPS-activated BV2 cells): significantly inhibited the expansion of inflammatory microglia
- peroxisome stability (LPS-activated BV2 cells): maintained peroxisome stability
- activity of inflammatory microglia (OCR) (inflammatory microglia): significantly inhibited the activity of inflammatory microglia
- platform crossover number (AD mice): significant increase
- time spent in the opposite quadrant (AD mice): significant decrease
- time spent in the specific effective area (center area) as a percentage of total movement time (AD mice): significant increase
- blood-brain barrier permeability [3]: could effectively cross the blood-brain barrier

From patent EP4810046A1, “USE OF PENTACYCLIC TRITERPENE COMPOUND TARGETING HYDROXYSTEROID 17-B DEHYDROGENASE 4” (Jiangsu Bcy Pharm. Co., Ltd, priority 2023, dated 2025)
